# ChEMBL document CHEMBL5442175, “EUbOPEN Chemogenomics Library - PDSP Secondary Binding” (2024)
# How the values were obtained:
# [1] = target: 5-hydroxytryptamine receptor 1D (Homo sapiens, UniProt P28221); assay: (§1) PDSP Secondary Binding target: HTR1D - Compounds are tested at 10 uM concentration, plate are incubated at room temperature in the dark for 90 minutes. Reaction are stopped by vacuum filtration onto 0.3% polyethyleneimine soaked filter mats using Filtermate harvester. Scintillation cocktail is then melted onto microwave-dried filters on a hot plate and the radio activity is counted in Microbia counter.
# Sequence of 5-hydroxytryptamine receptor 1D (P28221 whole entry): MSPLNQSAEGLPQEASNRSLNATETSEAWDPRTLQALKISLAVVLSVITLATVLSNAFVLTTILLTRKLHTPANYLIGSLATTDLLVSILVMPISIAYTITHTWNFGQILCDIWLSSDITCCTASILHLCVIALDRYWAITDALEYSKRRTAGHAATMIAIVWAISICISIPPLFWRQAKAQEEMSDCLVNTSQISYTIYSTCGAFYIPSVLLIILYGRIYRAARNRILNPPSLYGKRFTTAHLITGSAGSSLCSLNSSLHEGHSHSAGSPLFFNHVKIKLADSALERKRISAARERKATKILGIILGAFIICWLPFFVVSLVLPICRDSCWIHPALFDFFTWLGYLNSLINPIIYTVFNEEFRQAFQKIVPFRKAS
# [2] = target: T1, Alpha-2A adrenergic receptor (Homo sapiens, UniProt P08913); assay: as §1, with “ADRA2A” for “HTR1D”
# T1 sequence (P08913 whole entry): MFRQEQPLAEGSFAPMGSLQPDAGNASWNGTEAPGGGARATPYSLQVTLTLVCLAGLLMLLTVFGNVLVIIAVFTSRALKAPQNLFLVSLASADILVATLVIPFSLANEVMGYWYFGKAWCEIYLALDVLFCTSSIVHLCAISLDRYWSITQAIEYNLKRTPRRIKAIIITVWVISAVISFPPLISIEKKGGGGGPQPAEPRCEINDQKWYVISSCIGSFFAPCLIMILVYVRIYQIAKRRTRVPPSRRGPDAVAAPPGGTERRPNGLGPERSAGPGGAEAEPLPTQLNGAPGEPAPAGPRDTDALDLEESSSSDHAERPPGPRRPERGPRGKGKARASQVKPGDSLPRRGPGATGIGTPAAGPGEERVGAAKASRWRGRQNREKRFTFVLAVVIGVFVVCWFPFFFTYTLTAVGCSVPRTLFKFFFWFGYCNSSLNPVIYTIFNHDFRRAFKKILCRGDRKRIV
# [3] = target: T2, Alpha-1B adrenergic receptor (Homo sapiens, UniProt P35368); assay: as §1, with “ADRA1B” for “HTR1D”
# T2 sequence (P35368 whole entry): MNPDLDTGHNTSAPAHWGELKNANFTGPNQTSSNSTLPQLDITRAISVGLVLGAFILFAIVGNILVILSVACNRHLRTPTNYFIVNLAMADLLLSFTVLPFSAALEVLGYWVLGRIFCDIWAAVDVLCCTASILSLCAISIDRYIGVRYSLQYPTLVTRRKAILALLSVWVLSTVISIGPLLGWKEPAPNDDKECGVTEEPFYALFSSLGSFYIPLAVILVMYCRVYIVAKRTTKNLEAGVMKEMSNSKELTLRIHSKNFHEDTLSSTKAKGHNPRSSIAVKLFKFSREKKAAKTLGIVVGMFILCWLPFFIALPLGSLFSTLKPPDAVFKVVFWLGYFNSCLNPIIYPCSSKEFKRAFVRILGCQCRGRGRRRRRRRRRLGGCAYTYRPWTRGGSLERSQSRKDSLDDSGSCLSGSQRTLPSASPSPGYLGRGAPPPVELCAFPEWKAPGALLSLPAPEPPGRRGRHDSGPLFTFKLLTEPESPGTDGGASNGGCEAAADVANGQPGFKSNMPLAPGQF
# [4] = target: Sodium-dependent noradrenaline transporter (Homo sapiens, UniProt P23975); assay: as §1, with “SLC6A2” for “HTR1D”
# Sequence of Sodium-dependent noradrenaline transporter (P23975 whole entry): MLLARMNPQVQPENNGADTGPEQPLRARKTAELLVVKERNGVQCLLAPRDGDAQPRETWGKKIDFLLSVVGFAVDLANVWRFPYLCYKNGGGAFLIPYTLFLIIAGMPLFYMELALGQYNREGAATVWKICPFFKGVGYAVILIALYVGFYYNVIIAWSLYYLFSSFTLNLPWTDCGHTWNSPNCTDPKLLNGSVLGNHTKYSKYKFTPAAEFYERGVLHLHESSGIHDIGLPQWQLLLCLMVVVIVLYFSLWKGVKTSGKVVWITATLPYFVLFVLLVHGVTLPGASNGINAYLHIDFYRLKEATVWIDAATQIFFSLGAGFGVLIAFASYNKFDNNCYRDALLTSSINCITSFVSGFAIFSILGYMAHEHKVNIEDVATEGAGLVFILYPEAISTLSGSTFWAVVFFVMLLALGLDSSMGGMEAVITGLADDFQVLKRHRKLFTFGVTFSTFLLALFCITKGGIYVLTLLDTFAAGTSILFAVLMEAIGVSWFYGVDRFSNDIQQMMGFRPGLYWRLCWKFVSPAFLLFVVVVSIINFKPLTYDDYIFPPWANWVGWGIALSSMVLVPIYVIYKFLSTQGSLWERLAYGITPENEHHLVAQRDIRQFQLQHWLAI
# Histamine H1 receptor = Histamine H1 receptor (Homo sapiens, UniProt P35367); assay: as §1, with “HRH1” for “HTR1D”
# Sequence of Histamine H1 receptor (P35367 whole entry): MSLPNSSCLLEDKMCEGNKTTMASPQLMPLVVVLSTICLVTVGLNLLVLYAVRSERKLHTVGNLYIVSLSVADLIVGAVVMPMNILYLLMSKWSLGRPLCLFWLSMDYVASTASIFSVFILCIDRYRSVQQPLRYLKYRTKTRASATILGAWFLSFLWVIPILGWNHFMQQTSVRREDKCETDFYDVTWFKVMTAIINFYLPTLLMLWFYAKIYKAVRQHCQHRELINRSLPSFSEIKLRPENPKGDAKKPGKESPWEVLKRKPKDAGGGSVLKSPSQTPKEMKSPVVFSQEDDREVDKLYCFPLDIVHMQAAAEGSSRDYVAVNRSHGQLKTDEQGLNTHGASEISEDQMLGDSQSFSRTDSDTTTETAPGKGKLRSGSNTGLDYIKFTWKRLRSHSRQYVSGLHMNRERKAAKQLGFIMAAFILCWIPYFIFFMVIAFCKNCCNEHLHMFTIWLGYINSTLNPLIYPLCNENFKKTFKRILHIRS
# [5] = target: Sigma intracellular receptor 2 (Homo sapiens, UniProt Q5BJF2); assay: as §1, with “TMEM97” for “HTR1D”
# Sequence of Sigma intracellular receptor 2 (Q5BJF2 whole entry): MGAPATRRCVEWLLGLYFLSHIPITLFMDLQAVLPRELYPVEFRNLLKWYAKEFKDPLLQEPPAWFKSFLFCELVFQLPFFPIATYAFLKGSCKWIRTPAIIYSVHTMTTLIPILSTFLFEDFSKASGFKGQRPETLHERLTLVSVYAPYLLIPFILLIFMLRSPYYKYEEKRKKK
# [6] = target: Sigma non-opioid intracellular receptor 1 (Homo sapiens, UniProt Q99720); assay: as §1, with “SIGMAR1” for “HTR1D”
# Sequence of Sigma non-opioid intracellular receptor 1 (Q99720 whole entry): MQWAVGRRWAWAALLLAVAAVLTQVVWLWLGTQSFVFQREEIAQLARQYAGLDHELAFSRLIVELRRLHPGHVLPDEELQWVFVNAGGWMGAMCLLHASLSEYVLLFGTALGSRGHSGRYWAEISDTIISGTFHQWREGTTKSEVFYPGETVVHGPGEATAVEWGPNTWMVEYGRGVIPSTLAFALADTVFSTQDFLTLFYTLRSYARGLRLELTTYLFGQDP
# [7] = target: Sodium-dependent dopamine transporter (Homo sapiens, UniProt Q01959); assay: as §1, with “SLC6A3” for “HTR1D”
# Sequence of Sodium-dependent dopamine transporter (Q01959 whole entry): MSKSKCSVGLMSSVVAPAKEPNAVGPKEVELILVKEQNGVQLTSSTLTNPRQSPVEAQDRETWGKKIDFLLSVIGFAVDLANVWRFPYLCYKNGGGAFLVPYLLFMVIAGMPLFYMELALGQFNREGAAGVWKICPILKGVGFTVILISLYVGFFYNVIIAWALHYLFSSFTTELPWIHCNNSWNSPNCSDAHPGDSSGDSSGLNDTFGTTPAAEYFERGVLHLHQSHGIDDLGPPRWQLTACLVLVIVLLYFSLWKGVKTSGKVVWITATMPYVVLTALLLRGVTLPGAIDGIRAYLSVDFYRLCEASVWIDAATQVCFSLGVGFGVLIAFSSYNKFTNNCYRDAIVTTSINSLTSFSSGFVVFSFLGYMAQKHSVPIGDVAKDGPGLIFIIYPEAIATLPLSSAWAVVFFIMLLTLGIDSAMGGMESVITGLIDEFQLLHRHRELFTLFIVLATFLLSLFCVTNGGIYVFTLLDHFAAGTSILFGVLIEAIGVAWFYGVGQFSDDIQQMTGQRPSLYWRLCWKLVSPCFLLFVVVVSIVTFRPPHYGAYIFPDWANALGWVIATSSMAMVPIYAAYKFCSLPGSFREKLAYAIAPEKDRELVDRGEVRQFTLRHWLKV
# [8] = target: T3, 5-hydroxytryptamine receptor 3A (Homo sapiens, UniProt P46098); assay: as §1, with “HTR3A” for “HTR1D”
# T3 sequence (P46098 whole entry): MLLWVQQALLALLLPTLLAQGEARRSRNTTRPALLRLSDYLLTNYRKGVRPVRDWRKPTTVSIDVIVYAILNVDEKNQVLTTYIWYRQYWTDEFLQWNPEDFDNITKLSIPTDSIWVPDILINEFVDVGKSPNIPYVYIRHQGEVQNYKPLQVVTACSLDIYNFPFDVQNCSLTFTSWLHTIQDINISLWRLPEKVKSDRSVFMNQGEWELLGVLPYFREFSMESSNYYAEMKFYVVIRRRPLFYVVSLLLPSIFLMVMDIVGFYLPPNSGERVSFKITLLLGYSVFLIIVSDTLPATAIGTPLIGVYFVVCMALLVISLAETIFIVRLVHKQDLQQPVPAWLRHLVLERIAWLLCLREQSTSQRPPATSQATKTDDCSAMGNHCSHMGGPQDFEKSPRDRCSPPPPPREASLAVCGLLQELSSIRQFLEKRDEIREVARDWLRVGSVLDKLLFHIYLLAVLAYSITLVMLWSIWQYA
# [9] = target: T4, Alpha-1A adrenergic receptor (Homo sapiens, UniProt P35348); assay: as §1, with “ADRA1A” for “HTR1D”
# T4 sequence (P35348 whole entry): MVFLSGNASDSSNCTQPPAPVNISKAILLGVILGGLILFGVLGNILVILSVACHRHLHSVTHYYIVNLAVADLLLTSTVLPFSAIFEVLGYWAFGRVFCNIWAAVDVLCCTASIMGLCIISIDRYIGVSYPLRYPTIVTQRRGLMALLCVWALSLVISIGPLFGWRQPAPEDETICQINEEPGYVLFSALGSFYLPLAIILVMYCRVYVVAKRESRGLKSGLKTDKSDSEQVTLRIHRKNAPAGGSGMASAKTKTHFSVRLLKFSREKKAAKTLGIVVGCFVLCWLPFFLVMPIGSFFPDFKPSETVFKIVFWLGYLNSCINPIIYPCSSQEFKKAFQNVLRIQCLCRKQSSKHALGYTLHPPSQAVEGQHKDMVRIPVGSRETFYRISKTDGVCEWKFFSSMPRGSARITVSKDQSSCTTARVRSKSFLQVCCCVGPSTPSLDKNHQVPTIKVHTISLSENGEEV
# [10] = target: 5-hydroxytryptamine receptor 2A (Homo sapiens, UniProt P28223); assay: as §1, with “HTR2A” for “HTR1D”
# Sequence of 5-hydroxytryptamine receptor 2A (P28223 whole entry): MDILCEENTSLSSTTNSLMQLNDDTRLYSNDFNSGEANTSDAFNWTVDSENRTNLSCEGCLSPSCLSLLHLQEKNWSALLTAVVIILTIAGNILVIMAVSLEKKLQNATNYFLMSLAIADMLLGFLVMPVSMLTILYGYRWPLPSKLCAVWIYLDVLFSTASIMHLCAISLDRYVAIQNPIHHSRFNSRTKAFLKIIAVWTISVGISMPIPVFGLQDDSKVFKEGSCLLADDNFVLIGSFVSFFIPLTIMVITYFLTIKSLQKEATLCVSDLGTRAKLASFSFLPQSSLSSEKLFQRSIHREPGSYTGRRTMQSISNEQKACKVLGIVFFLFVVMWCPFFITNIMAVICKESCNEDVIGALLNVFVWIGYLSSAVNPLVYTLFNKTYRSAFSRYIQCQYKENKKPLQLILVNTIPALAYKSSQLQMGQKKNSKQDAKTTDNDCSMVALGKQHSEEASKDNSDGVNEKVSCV
# [11] = target: 5-hydroxytryptamine receptor 1B (Homo sapiens, UniProt P28222); assay: as §1, with “HTR1B” for “HTR1D”
# Sequence of 5-hydroxytryptamine receptor 1B (P28222 whole entry): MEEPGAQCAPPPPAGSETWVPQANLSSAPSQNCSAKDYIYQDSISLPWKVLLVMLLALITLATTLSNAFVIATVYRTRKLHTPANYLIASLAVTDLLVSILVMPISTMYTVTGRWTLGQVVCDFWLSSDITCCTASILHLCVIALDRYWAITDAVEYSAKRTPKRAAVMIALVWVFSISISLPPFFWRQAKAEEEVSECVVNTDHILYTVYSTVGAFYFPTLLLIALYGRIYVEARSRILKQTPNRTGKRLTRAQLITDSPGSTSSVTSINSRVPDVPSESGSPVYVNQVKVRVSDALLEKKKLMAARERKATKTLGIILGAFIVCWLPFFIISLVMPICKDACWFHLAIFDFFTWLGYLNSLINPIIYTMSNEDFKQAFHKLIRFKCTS
# Histamine H3 receptor = Histamine H3 receptor (Homo sapiens, UniProt Q9Y5N1); assay: as §1, with “HRH3” for “HTR1D”
# Sequence of Histamine H3 receptor (Q9Y5N1 whole entry): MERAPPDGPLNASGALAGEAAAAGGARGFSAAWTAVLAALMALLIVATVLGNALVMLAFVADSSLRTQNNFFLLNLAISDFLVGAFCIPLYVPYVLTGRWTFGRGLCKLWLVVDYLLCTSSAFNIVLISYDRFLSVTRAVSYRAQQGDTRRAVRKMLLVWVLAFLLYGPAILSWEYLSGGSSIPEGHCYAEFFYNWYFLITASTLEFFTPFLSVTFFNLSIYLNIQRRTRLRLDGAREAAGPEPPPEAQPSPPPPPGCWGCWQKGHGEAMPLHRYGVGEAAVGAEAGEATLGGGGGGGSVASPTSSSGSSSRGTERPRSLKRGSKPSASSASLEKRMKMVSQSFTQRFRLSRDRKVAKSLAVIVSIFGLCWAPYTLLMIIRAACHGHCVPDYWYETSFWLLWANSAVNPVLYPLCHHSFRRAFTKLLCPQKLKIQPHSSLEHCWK
# [12] = target: 5-hydroxytryptamine receptor 7 (Homo sapiens, UniProt P34969); assay: as §1, with “HTR7” for “HTR1D”
# Sequence of 5-hydroxytryptamine receptor 7 (P34969 whole entry): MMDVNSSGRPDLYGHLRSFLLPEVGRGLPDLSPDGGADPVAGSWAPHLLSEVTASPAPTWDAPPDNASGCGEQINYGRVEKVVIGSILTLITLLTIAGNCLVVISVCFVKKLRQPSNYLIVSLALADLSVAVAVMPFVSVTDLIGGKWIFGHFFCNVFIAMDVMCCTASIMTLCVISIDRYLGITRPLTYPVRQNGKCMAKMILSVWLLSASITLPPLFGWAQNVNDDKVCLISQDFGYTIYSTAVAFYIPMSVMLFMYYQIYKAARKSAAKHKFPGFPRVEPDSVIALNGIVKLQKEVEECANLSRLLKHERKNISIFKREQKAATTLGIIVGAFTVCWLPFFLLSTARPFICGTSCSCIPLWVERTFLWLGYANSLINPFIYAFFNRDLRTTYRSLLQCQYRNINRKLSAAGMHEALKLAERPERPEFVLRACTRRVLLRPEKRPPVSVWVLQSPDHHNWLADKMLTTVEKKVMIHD
# [13] = target: T5, Muscarinic acetylcholine receptor M1 (Homo sapiens, UniProt P11229); assay: as §1, with “CHRM1” for “HTR1D”
# T5 sequence (P11229 whole entry): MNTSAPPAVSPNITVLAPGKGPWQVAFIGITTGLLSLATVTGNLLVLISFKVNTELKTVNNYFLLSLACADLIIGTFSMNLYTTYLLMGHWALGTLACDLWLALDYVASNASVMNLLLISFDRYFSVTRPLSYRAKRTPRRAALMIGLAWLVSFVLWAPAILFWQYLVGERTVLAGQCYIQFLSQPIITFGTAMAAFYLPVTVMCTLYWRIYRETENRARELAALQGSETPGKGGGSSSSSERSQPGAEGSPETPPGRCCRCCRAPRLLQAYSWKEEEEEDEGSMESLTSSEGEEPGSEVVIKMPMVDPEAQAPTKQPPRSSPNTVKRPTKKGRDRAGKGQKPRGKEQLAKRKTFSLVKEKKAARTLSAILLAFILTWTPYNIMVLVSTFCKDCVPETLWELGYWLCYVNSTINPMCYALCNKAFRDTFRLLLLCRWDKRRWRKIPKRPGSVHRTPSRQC
# [14] = target: T6, Alpha-2C adrenergic receptor (Homo sapiens, UniProt P18825); assay: as §1, with “ADRA2C” for “HTR1D”
# T6 sequence (P18825 whole entry): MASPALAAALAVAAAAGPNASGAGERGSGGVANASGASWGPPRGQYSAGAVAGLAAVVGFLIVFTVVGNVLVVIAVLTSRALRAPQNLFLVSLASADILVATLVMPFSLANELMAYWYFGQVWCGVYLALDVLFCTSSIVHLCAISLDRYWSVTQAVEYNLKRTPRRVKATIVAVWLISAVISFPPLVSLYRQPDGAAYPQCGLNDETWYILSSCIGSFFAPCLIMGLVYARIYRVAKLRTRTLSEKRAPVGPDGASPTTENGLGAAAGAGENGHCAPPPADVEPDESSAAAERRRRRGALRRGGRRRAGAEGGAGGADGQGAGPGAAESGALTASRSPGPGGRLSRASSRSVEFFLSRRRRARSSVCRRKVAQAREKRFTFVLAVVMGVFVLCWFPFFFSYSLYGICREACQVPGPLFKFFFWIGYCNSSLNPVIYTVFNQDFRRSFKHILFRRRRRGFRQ
# [15] = target: T7, Muscarinic acetylcholine receptor M2 (Homo sapiens, UniProt P08172); assay: as §1, with “CHRM2” for “HTR1D”
# T7 sequence (P08172 whole entry): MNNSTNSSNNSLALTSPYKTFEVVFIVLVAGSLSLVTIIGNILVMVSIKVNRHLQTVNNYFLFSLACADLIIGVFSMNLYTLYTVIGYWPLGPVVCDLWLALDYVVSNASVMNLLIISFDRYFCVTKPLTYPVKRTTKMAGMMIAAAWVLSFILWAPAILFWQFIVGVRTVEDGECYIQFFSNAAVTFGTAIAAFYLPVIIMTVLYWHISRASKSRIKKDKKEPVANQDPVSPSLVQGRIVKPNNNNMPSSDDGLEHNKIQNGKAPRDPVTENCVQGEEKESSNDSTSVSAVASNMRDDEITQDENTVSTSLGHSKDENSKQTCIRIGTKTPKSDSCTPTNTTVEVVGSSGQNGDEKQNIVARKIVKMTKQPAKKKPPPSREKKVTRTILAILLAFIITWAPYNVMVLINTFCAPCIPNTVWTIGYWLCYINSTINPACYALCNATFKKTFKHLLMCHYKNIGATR
# [16] = target: T8, Muscarinic acetylcholine receptor M5 (Homo sapiens, UniProt P08912); assay: as §1, with “CHRM5” for “HTR1D”
# T8 sequence (P08912 whole entry): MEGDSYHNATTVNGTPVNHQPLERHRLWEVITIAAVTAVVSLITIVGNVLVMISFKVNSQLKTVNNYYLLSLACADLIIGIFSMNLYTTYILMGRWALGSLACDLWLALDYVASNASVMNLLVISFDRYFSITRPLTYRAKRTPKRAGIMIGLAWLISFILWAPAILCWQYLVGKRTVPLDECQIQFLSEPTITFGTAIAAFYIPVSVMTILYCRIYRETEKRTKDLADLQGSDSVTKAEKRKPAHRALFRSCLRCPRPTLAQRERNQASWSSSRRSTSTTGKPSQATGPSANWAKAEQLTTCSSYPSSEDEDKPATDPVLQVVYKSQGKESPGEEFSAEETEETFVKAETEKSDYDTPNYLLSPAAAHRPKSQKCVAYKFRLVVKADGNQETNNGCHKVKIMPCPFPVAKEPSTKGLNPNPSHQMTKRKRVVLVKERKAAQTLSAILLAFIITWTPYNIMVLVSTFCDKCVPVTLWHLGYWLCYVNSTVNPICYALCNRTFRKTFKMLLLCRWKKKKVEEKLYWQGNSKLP
# [17] = target: Kappa-type opioid receptor (Homo sapiens, UniProt P41145); assay: as §1, with “OPRK1” for “HTR1D”
# Sequence of Kappa-type opioid receptor (P41145 whole entry): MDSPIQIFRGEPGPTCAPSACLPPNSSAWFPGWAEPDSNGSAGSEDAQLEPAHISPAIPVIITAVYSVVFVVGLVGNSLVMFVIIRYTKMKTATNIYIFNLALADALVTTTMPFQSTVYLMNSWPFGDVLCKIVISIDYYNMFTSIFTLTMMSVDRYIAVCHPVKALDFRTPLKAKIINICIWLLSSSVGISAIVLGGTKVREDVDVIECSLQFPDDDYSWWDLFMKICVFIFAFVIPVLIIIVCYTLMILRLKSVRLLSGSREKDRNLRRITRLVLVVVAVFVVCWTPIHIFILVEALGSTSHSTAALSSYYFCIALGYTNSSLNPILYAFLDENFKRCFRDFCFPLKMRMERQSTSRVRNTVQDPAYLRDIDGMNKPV
SMILES,Ki [1] [nM],Ki [2] [nM],Ki [3] [nM],Ki [4] [nM],Ki (Histamine H1 receptor) [nM],Ki [5] [nM],Ki [6] [nM],Ki [7] [nM],Ki [8] [nM],Ki [9] [nM],Ki [10] [nM],Ki [11] [nM],Ki (Histamine H3 receptor) [nM],Ki [12] [nM],Ki [13] [nM],Ki [14] [nM],Ki [15] [nM],Ki [16] [nM],Ki [17] [nM]
NCCc1cn(S(=O)(=O)c2c(Cl)nc3sccn23)c2ccccc12,216,153,4880,1260,1650,675,1320,1720,662,1100,111,562,1980,1430,–,–,–,–,–
c1cc(CN2CCCNCCNCCCNCC2)ccc1CN1CCCNCCNCCCNCC1 [PLERIXAFOR],–,–,–,–,–,–,–,> 10000,–,–,–,–,2.74,–,804,1780,1010,–,–
COc1ccc2cc(S(=O)(=O)N[C@H](CC(=O)N[C@H](Cc3ccc(CN4[C@H](C)CCC[C@@H]4C)cc3)C(=O)N(C)C(C)C)c3ccc4c(c3)OCO4)ccc2c1,–,–,–,–,–,63.4,495,–,–,–,–,–,645,–,–,1260,528,841,195
